# Experimental data reported in US6492421B1, “Substituted phenylalanine type compounds which inhibit leukocyte adhesion mediated by VLA-4” (Athena Neurosciences, Inc., priority 1997, dated 2002).
# Square brackets hold non-standard residues; d marks the D form. Side chains are listed from the residue outwards. Peptide text beside a SMILES is read from it. * marks the point of attachment. Phe(4-NH2) = Nc1ccc(C[C@H](N)C(=O)O)cc1; Tos = Cc1ccc(S(=O)(=O)*)cc1; Boc = CC(C)(C)OC(=O)*; Cam = NC(=O)C*
# Legend:
# [1] = test system: Experimental Autoimmune (or Allergic) Encephalomyelitis (“EAE”); assay: In vivo evaluation: Experimental Autoimmune Encephalomyelitis (EAE) model; design: species or system rats or guinea pigs; settings: treatment began on Day 8; 10 mg/kg to 200 mg/kg, bid, for five days; SC, PO or IP
Compound,melting point [°C],"active in EAE model (delayed the onset of symptoms, e.g., clinical scores no greater than 2 or slowed body weight loss as compared to the control) [1]"
COC(=O)[C@H](Cc1ccc(OCCN2CCC(O)(c3ccccc3)CC2)cc1)NC(=O)[C@@H]1CCCN1S(=O)(=O)c1ccc(C)cc1,122 to 123,
"Cc1ccc(S(=O)(=O)N2CCC[C@H]2C(=O)N[C@@H](Cc2ccc(NC(=O)[C@@H](C)NC(=O)OC(C)(C)C)cc2)C(=O)O)cc1 [Example 5, N-(Toluene-4-sulfonyl)-L-prolyl-4-[(N-tert-butoxylcarbonyl-D-alanyl)amino]-L-phenylalanine] (Tos-Pro-[Phe(4-NH2)]([dA-Boc])-OH)",,active
"Cc1ccc(S(=O)(=O)N2CCC[C@H]2C(=O)N[C@@H](Cc2ccc(-c3ccccc3C(=O)O)cc2)C(=O)O)cc1 [Example 12, N-(Toluene4-sulfonyl)-L-prolyl-4-[2-(carboxy)phenyl]-L-phenylalanine]",,active
"COC(=O)[C@H](Cc1ccc(N(CCCN(C)C)S(=O)(=O)C(F)(F)F)cc1)NC(=O)[C@@H]1CCCN1S(=O)(=O)c1ccc(C)cc1 [Example 16, N-(Toluene-4-sulfonyl)-L-prolyl-L-4-{N-[3-(N,N-dimethylamino)propyl]-N-[trifluoromethanesulfonyl]amino}-L-phenylalanine Methyl Ester]",45 to 55,
"Cc1ccc(S(=O)(=O)N2CCC[C@H]2C(=O)N[C@@H](Cc2ccc(OCCCN(C)C)cc2)C(=O)O)cc1 [Example 18, N-(Toluene-4-sulfonyl)-L-prolyl-4-[3-(N,N-dimethylamino)propoxy]-L-phenylalanine]",,active
"Cc1ccc(S(=O)(=O)N2CCC[C@H]2C(=O)N[C@@H](Cc2ccc(OCCN(C(C)C)C(C)C)cc2)C(=O)O)cc1 [Example 23, N-(Toluene-4-sulfonyl)-L-prolyl-4-[2-(N,N-diisopropylamino)ethoxy]-L-phenylalanine]",121 to 124,
"CN(C)CCCOc1ccc(C[C@H](NC(=O)[C@@H]2CCCN2S(=O)(=O)c2cccs2)C(=O)O)cc1 [Example 24, N-(Thiophene-2-sulfonyl)-L-prolyl-4-[3-(N,N-dimethylamino)propoxy]-L-phenylalanine]",> 200,
"CCN(CC)CCOc1ccc(C[C@H](NC(=O)[C@@H]2CCCN2S(=O)(=O)c2ccc(C)cc2)C(=O)O)cc1 [Example 26, N-(Toluene-4-sulfonyl)-L-prolyl-4-[2-(N,N-diethylamino)ethoxy]-L-phenylalanine]",105 to 109,
"CN(C)CCCOc1ccc(C[C@H](NC(=O)[C@@H]2CCCN2S(=O)(=O)c2cc(Cl)sc2Cl)C(=O)O)cc1 [Example 27, N-(2,5-Dichlorothiophene-3-sulfonyl)-L-prolyl-4-[3-(N,N-dimethylamino)propoxy]-L-phenylalanine]",> 200,
"Cc1ccc(S(=O)(=O)N2CCC[C@H]2C(=O)N[C@@H](Cc2ccc(OCCN3CCCCC3)cc2)C(=O)O)cc1 [Example 46, N-(Toluene-4-sulfonyl)-L-prolyl-4-[2-(piperidin-1-yl)ethoxy]-L-phenylalanine]",102 to 106,
"Cc1ccc(S(=O)(=O)N2CCC[C@H]2C(=O)N[C@@H](Cc2ccc(OCC(=O)O)cc2)C(=O)O)cc1 [Example 56, N-(Toluene-4-sulfonyl)-L-prolyl-4-[(carboxy)methoxy]-L-phenylalanine]",70 to 73,
"Cc1ccc(S(=O)(=O)N2CCC[C@H]2C(=O)N[C@@H](Cc2ccc(OCC(N)=O)cc2)C(=O)O)cc1 [Example 58, N-(Toluene-4-sulfonyl)-L-prolyl-4-[(aminocarbonyl)methoxy]-L-phenylalanine] (Tos-Pro-Tyr(Cam)-OH)",195 to 196,
"Cc1ccc(S(=O)(=O)N2CCC[C@H]2C(=O)N[C@@H](Cc2ccc(OCC(=O)NC(C)(C)C)cc2)C(=O)O)cc1 [Example 59, N-(Toluene-4-sulfonyl)-L-prolyl-4-[(N-tert-butylaminocarbonyl)methoxy]-L-phenylalanine]",88 to 89,
"N-(Toluene-4-sulfonyl)-L-(5,5-dimethyl)thiaprolyl-4-[2-(N,N-dimethylamino)ethoxy]-L-phenylalanine [Example 20]",,active
